{"source": "patent US9744236B2", "about": "“Photolabile compounds” (The Trustees of Columbia University in the City of New York, priority 2009, dated 2017)", "key": {"[1]": {"test": "Cyclic voltammetry, redox potential", "format": "physicochemical", "settings": "acetonitrile, vs. NHE", "procedure": "UV-vis spectra in water were obtained with an HP 8453 diode array spectrophotometer. RMN ^1H spectra were obtained using a Bruker 500 MHz equipment. CV measurements were performed with a PAR 273A potentiostat. Irradiation was effected by means of a pulsed Xe lamp, (pulse energy ˜0.5 J), with a low-pass filter at 480 nm. Irradiation using a 473 nm DPSS laser gave similar results.\n(See, e.g., E. S. Dodsworth et al., 1986, Chem. Phys. Lett., 124:152-158). The photoactivity of these compounds has been explained in terms of a reaction pathway that involves the transition between the MLCT state to a lower-energy d-d state, which promotes ligand release. There is a direct correspondence between the energy of the MLCT transition and the quantum yield of the photoreaction. For [Ru(bpy)2(4AP)CH3CN]^2+, the photoreaction yield is about φPR=0.4. Since [Ru(bpy)2(4AP)2]Cl2 presents a red-shifted band, a lower photoreaction yield is expected. An estimate based on early experiments leads to an estimate of φPR≅0.02 at 473 nm.\nIts aqueous solutions present a strong metal to ligand charge-transfer band (MLCT band) at 450 nm, characteristic of this family of Ru polypyridines."}, "[2]": {"test": "Photorelease of glutamate, UV-Vis during 450 nm LED irradiation", "format": "physicochemical", "procedure": "As the photoreaction proceeds, the generation of the aquo complex was recorded to reach completion in about 4 minutes. The presence of two isosbestic points as well as a factor analysis performed on the spectra indicate that just two colored species are present in the solution, according to what is expected in a single photoaquation process. The spectrum of the photoproduct was found identical to that of the complex [Ru(bpy)2(PMe3)(H2O)]2^+, which can be synthesized by refluxing the chloro complex in water. At pH=11 a similar behavior was observed, although in this case the product is the hydroxo complex [Ru(bpy)2(PMe3)(OH)]^+.\nThe irradiance of the light source was calibrated using the known efficiency of the photolysis of [Ru(bpy)(Py)2]^2+. The amount of photoreleased glutamate was fitted using a two-parameter single-exponential function: y=a[1−exp(−bx)] and the quantum yield (φPC) was obtained as a•b, adopting a value of 0.13 at pH=7 and 0.10 at pH=11."}, "[3]": {"test": "Flash photolysis, uncaging time", "format": "physicochemical", "settings": "basic aqueous solution, 532 nm, 10 ns pulse", "procedure": "In order to estimate the uncaging time, a flash photolysis experiment was performed on a basic aqueous solution of [Ru(bpy)2(PMe3)Glu] using the second harmonic of a Nd-YAGlaser (532 nm, 10 ns pulse). The photocleavage occurs within the first 50 ns, being the fastest reported caged compound, to our knowledge. The fact that a tens of nanoseconds are required to complete the glutamate uncaging reaction is compatible with the observation that the excited state lifetime measured for a similar compound containing pyridine instead of glutamate is in the range of 10-100 ns."}, "[4]": {"test": "1H-NMR in D2O, isotopic exchange / inertness", "format": "physicochemical", "settings": "2 months in D2O at room temperature", "from_the_text": "The aliphatic region corresponding to the glutamate moiety is depicted in the upper trace of FIG. 18, where —NH2 protons appear at 4.50, 4.12, 4.00 and 3.57 ppm. […] This behavior differs from that of free glutamate which, under the same conditions, exchanges rapidly D+ for H+."}, "[5]": {"system": "living neocortical pyramidal neurons in mouse brain slices", "test": "Biocompatibility test on brain slices (two-photon microscopy, whole-cell patch recordings)", "format": "cell-based", "settings": "350 μM, 1 hour of incubation", "procedure": "Biocompatibility tests were performed to evaluate the potential toxicity of the complex. 350 μM [Ru(bpy)2(PMe3)Glu], a concentration used for two-photon uncaging experiments, was incubated with living neocortical pyramidal neurons in mouse brain slices, and carefully monitored the morphology and electrophysiological properties of the neurons using two-photon microscopy and whole-cell patch recordings."}, "[6]": {"test": "Behaviour of modified rhodamine ligand at physiological pH", "format": "physicochemical", "from_the_text": "Given these properties, the chemical structure of rhodamine B was modified by adding a “sticky tail” in order to coordinate the fluorescent molecule to the metal center. In a first attempt to synthesize a modified rhodamine bearing a coordinating group, carboxylate was amidated with aminopropionitrile, using the Adamczyk procedure (Adamczyk, M. J. Bioorg. Med. Chem. Lett. 2000, 10: 1539-1541). The obtained compound is RhodB-APN, indicated in scheme 1B. […] Rhodamine 6G can be modified similarly to the rhodamine B, described above."}, "[7]": {"settings": "in aqueous solutions; cited from earlier work"}, "[8]": {"test": "Fluorescence emission quantum yield before and after irradiation", "format": "physicochemical", "settings": "after blue light (473 nm) irradiation", "from_the_text": "All reagents were purchased from Sigma-Aldrich and used as received. Ru(bpy)2Cl2 was synthesized according to the literature using water as solvent (Viala, C.; Coudret, C. Inorg. Chim. Acta 2006, 359: 984-989). UV-vis spectra were taken with a HP8453 diode-array spectrometer. NMR spectra were obtained using a 500 MHz Bruker AM-500. Fluorescence emission measurements were made with a PTI Quantamaster spectrofluorometer, corrected for the instruments response function. Rhodamine B was used as fluorescence standard of emission quantum yield (φ=0.31 in aqueous solutions). Quantum yield of the complex was obtained directly from the ratio of the spectral areas, which present the same shape.\nFIG. 20 depicts the emission spectra of the complex during irradiation. The maximum and the shape of the initial emission spectrum is the same as that of the free ligand RhodB-MAPN but the emission quantum yield is much lower, around pt=0.04. Quantum yields are easily calculated integrating the spectral areas. After irradiation with a 473 nm laser, RhodB-MAPN is released and the solution increases its fluorescence up to 6 fold, to φt=0.24."}, "Retzius cells": {"system": "Retzius cells", "test": "Injection of caged fluorescent probe into living neurons", "format": "cell-based, Hirudo medicinalis", "settings": "short-term (˜2 h) experiments", "procedure": "Microscopy of leech (Hirudo medicinalis) ganglia was performed in a custom-made setup for photoelectrophisiology equipped with a micromanipulator used to impale the neuron body with the ˜1 μm tip diameter capillaries, and a CCD webcam as a registering device. An isolated leech ganglion from a segment between 7 and 14 was pinned down in a sylgard-coated, 35 mm Petri dish. Retzius cells were identified by their position, size, and firing behavior. Intracellular recordings were obtained with ˜20 MΩ sharp capillary microelectrodes, a Neuroprobe 1600 (A-M Systems) amplifier and a A/D signal acquisition board at 1 kHz sampling rate and custom-made software. For iontophoretical injection of the dye the microelectrode was filled with recording solution to which 1 mM caged fluorescent dye (chloride form) was added. Square, biphasic pulses of 1 nA, 2 Hz were applied for less that 5 min.\nThis example provides an activatable fluorescent probe with surprising sensitivity in the visible light region. It increases its intrinsic fluorescence up to 6-fold after blue light irradiation. […] The probe was used to image the laminar flow inside a thin spectrophotometric flow cell and to visualize the parabolic-shaped flow in a FIA capillary."}}}
{"smiles": "CP(C)C.F[P-](F)(F)(F)(F)F.F[P-](F)(F)(F)(F)F.NC(CCC(=O)O)C(=O)O.[Ru+2].c1ccc(-c2ccccn2)nc1.c1ccc(-c2ccccn2)nc1", "note": "[[Ru(bpy)2(PMe3)GlutH2](PF6)2]", "values": [{"measurement": "redox process, Ru(III)/Ru(II) couple of the original complex", "setting": "[1]", "value": 0.98, "unit": "V"}, {"measurement": "quantum yield (φPC) of glutamate photorelease", "setting": "[2]; pH=7", "value": 0.13}, {"measurement": "time for photoreaction to reach completion", "setting": "[2]; pH=7, 450±20 nm LED", "value": "about 4 minutes"}, {"measurement": "quantum yield (φPC) of glutamate photorelease", "setting": "[2]; pH=11", "value": 0.10}, {"measurement": "photocleavage time", "setting": "[3]", "value": "≤ 50", "unit": "ns"}, {"measurement": "isotopic exchange of coordinated -NH2 (inertness)", "setting": "[4]", "value": "no exchange is seen"}, {"measurement": "effects on morphology and electrophysiological properties of neurons", "setting": "[5]", "value": "no detectable effects were observed"}]}
{"smiles": "CCN(CC)c1ccc2c(-c3ccccc3C(=O)NCCC#N)c3ccc(=[N+](CC)CC)cc-3oc2c1", "note": "[RhodB-APN]", "values": [{"measurement": "stability of fluorescent form", "setting": "[6]", "value": "undergoes isomerization to the cyclic spirolactame form"}]}
{"smiles": "CCN(CC)c1ccc2c(-c3ccccc3C(=O)O)c3ccc(=[N+](CC)CC)cc-3oc2c1.[Cl-]", "note": "[Rhodamine B]", "values": [{"measurement": "emission quantum yield (fluorescence standard)", "setting": "[7]", "value": 0.31}]}
{"smiles": "CCN(CC)c1ccc2c(-c3ccccc3C(=O)N(C)CCC#N)c3ccc(=[N+](CC)CC)cc-3oc2c1.[Cl-].[Cl][Ru+].c1ccc(-c2ccccn2)nc1.c1ccc(-c2ccccn2)nc1", "note": "[[Ru(bpy)2(RhodB-MAPN)Cl]Cl]", "values": [{"measurement": "increase of fluorescence", "setting": "[8]", "value": "up to 6 fold"}, {"measurement": "acute toxicity in injected living cells", "setting": "Retzius cells", "value": "no sign of acute toxicity"}]}
